From patent publication US7173018B2, “Phospholipid derivatives of non-steroidal anti-inflammatory drugs” (D-Pharm, Ltd., priority 1998, dated 2007)

Columns and labels:
[1] = In vivo sub-chronic toxicity study: gastro-toxicity scores; design: species or system rat; conditions: rats, 10 mg/kg p.o. daily, day 14; scores 0 (no visible lesions) to 5 (perforation); FIG. 2
Procedure: Male Sprague-Dawley rats weighing 250–280 g were kept under standard conditions for an acclimatization period of one week with food and water supplied ad lib. […] Animals treated with the vehicle solution alone serve as control group.
Toxicity scores were assessed at the end of the 14-day multiple p.o drug administration period. On day 14, the animals were anesthetized 4 hours after administration of the test materials by i.p. injection of 0.5 ml pentobarbitone sodium (200 mg/ml) and laparatomy was preformed to remove the rat's stomach with approximately 15 mm of the associated duodenum. The stomachs were cut open along the small curvature and washed, with gentle rubbing, under running water. A semi-quantitative assessment of the gastric damage was determined by assigning scores ranging from 0 to 5. The scores indicate as follows: (0) No macroscopically visible lesions; (1) Hyperemia; (2) One-two slight lesions; (3) More than 2 slight lesions; (4) Severe lesions; (5) Perforation.

[2] = system: Carrageenan-induced rat paw edema; assay: Carrageenan-induced rat paw edema (anti-inflammatory efficacy); assay type: in vivo; conditions: rats, 3, 5 and 7 hours post-carrageenan, p<0.05, FIG. 3
Procedure: Efficacy of DP-DFC lipid derivatives was tested in vivo in the model system of rodent carrageenan edema test.
Carrageenan-induced rat paw edema is a widely employed animal model for acute inflammation. The objective of the study is to assess the potential prophylactic effects of DP-DCF derivatives on the prevention of inflammatory swelling and, in particular, to compare the efficacy parameters with those obtained for diclofenac. The experimental set-up was as follows: Male Sprague-Dawley rats weighing 120–180 g (supplied by Harlan Laboratories Breeding Center, Israel) were intraperitoneally (i.p.) injected with drug or prodrug one hour prior to the induction of inflammation with carrageenan. Animals injected with vehicle alone served as control group.
Paw edema was induced by a single sub-plantar injection of 0.1 ml 2% carrageenan in physiological saline, into test animals' right hind paws. Just prior to paw edema induction, the paw thickness of the test animals' right hind paws was measured in triplicate using a plethysmograph and micrometer to provide a baseline. At 3, 5 and 7 hours post carrageenan injection, the right paw thickness was measured in the same manner as before.
Potential anti-inflammatory activity in suppressing carrageenan-induced paw oedema was assessed by the relative differences in paw volumes between pre- and post-carrageenan measurements, expressed as (%) change. […]

[3] = In vivo sub-chronic toxicity study: body weight changes; design: species or system rat; conditions: rats, 10 mg/kg p.o. gavage daily for 14 days; FIG. 1
Procedure: DP-DCF compounds were evaluated for sub-chronic toxicity during 14-day drug administration period by following two criteria: a) monitoring body weight changes, and b) evaluating gastro-toxicity scores.
Male Sprague-Dawley rats weighing 250–280 g were kept under standard conditions for an acclimatization period of one week with food and water supplied ad lib. The rats were administered with commercial diclofenac (DCF; Sigma, USA) or with equivalent doses of 1-Stearoyl-2-{4-[2-(2,6-dichloroanilino)-phenylacetamido]butanoyl}-sn-glycero-3-phosphocholine (DP-DCF; Z=3) or 1-Stearoyl-2-{6-[2-(2,6-dichloroanilino)-phenylacetamido]hexanoyl}-sn-glycero-3-phosphocholine (DP-DCF; Z=5), p.o. by gavage daily for 14 days. Animals treated with the vehicle solution alone serve as control group.
The treatment groups were as follows:
A major sign of general toxicity is decreasing of body weight. Male Sabra rats were treated as described above. The rats were weighed prior to dosing at the beginning of the experiment (day zero) and at the 5th, 9th and 13th day of the treatment.

[4] = system: global forebrain ischemia; assay: Global forebrain ischemia model, serum neuron specific enolase (NSE); assay type: in vivo, Mongolian gerbils; conditions: gerbils
Procedure: Neuroprotective effects of compounds of the invention were examined in the global forebrain ischemic model system in Mongolian gerbils.
Male Mongolian gerbils 60–70 g (Charles River Laboratories, USA) were used in this study. Global forebrain ischemia was induced by transient occlusion of both carotid arteries for 10 minutes, using arterial clips. The tested compounds were orally administered to the animals, 7–8 animals per group, by either one of two schemes: • a) single dose administration of commercial diclofenac (Sigma, USA; 10 mg/kg) or dose-equivalent of DP-DCF; Z=5 (30 mg/kg). The administration was per os (p.o.) two hours before induction of ischemia (FIG. 4); • b) multiple dosing of DP-DCF; Z=5 (30 mg/kg) orally administered daily for 5 days beginning four days prior to induction of ischemia. (FIG. 5).
In both schemes, animals treated with vehicle alone served as control groups. Blood samples were withdrawn from eye sinuses of the animals 24 hours after the onset of ischemia and serum levels of neuron specific enolase (NSE) were determined by radioimmunoassay using NSE kit (Pharmatope Ltd., Israel).
It has been shown that serum levels of NSE are elevated in the event of ischemic insult. Thus, serum level of NSE may serve as a marker for the degree of neuronal damage (Barone et al. (1993) Brain Res. 623: 77–82).

O=C(O)Cc1ccccc1Nc1c(Cl)cccc1Cl [DCF, [o-(2,6-dichloroanilino)phenyl]acetic acid]
Gastro-toxicity score [1]: 4
Anti-inflammatory activity: suppression of carrageenan-induced increase of paw volume ([2]; 10 mg/kg i.p. one hour prior to carrageenan): statistically significant and consistent anti-inflammatory activity
Body weight changes (%) [3]: maximal decrease of body weight on day 5

1-Stearoyl-2-{6-[2-(2,6-dichloroanilino)phenylacetamido]hexanoy}-sn-glycero-3-phosphocholine [DCF n=5]
Serum NSE level 24 hours after ischemia ([4]; 30 mg/kg orally daily for 5 days beginning four days prior to ischemia, p<0.05, FIG. 5): significant reduction in NSE level
Serum NSE level 24 hours after ischemia ([4]; single dose 30 mg/kg p.o. two hours before ischemia, FIG. 4): reduced in comparison to NSE level in serum of animals that were treated with DCF or vehicle alone
Anti-inflammatory activity: suppression of carrageenan-induced increase of paw volume ([2]; 30 mg/kg i.p. one hour prior to carrageenan): statistically significant and consistent anti-inflammatory activity
